In this experiment the target is T1, HEK-Blue-hTLR7 cells (Homo sapiens, UniProt Q9NYK1).
T1 construct: expressed in transfected cells; host or cells: HEK-Blue-hTLR7 cells (HEK293-derived reporter line)
T1 sequence (Q9NYK1 27-1049): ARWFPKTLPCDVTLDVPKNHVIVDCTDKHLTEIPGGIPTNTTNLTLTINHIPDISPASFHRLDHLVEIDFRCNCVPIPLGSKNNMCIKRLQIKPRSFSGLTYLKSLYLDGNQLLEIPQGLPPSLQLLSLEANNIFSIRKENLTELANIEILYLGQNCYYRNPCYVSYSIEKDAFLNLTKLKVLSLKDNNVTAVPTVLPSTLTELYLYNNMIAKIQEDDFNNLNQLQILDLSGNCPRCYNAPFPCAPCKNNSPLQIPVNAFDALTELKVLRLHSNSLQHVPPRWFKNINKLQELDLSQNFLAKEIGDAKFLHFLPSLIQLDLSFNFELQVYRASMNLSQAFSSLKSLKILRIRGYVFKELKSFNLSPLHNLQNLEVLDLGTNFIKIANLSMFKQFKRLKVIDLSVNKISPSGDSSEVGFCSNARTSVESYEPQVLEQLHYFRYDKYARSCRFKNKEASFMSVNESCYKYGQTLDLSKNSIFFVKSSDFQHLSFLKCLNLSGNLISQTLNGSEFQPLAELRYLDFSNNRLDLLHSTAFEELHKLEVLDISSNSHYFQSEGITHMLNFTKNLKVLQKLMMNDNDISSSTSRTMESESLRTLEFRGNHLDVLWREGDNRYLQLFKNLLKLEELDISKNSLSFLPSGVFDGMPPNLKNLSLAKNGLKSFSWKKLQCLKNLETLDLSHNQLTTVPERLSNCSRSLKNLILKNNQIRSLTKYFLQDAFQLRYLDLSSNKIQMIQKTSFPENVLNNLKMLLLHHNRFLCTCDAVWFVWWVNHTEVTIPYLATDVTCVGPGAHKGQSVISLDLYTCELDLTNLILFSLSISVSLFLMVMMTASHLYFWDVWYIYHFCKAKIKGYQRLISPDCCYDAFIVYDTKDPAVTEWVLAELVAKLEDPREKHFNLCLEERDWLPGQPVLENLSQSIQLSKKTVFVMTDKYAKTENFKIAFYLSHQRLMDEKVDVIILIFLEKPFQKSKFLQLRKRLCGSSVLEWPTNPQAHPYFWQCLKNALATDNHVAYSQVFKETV
As to the kind of experiment: HEK-Blue-hTLR7 cell inhibition assay. Format: cell-based. To be noted: R848 0.8 µM, 16 h, OD 620 nm, read-out: TLR7 IC50. The procedure, abridged:
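Cells were pre-incubated 4 h, then co-treated 16 h at 37 °C with compound (10 doses, 0.5–10000 nM final) plus R848 (0.8 µM for TLR7, 3 µM for TLR8) or ODN2006 (1 µM, TLR9). Reporter OD620 gave inhibition relative to DMSO blank and agonist-only controls; IC50 came from curve fitting.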

A value given as a limit tells only on which side of the number the result lay.

21 compounds from patent EP4806891A1 (Kangbaida (Sichuan) Biotechnology Co., Ltd., priority 2023, dated 2025) can be followed below.

Usually IC50 stands for the concentration at which inhibition is half-maximal.

For `N#Cc1ccc(N2C[C@]3(c4nnc(CCN5CCOCC5)o4)C[C@]3(C(F)(F)F)C2)c2cccnc12` [Compound 43, 5-((1S,5R)-1-(5-(morpholinoethyl)-1,3,4-oxadiazol-2-yl)-5-(trifluoromethyl)-3-azabicyclo[3.1.0]hexan-3-yl)quinoline-8-carbonitrile], the IC50 is less than 1 µM.
The figure for `Cn1c(CN2CCCC2)nnc1[C@]12CN(c3ccc(C#N)c4ncccc34)C[C@@]1(C(F)(F)F)C2` [Compound 44, 5-((1S,5R)-1-(4-methyl-5-(pyrrolidin-1-ylmethyl)-4H-1,2,4-triazol-3-yl)-5-(trifluoromethyl)-3-azabicyclo[3.1.0]hexan-3-yl)quinoline-8-carbonitrile] is less than 1 µM; for `N#Cc1ccc(N2C[C@]3(c4nnc(C5CNCC(F)C5)o4)C[C@]3(C(F)(F)F)C2)c2cccnc12` (stereo partly drawn) [Compound 45, 5-((1R,5S)-1-((difluoro-3-methyl)-12-fluoraneyl)-5-(5-(5-fluoropiperidin-3-yl)-1,3,4-oxadiazol-2-yl)-3-azabicyclo[3.1.0]hexan-3-yl)quinoline-8-carbonitrile] it is less than 0.1 µM.
Consider `N#Cc1ccc(N2C[C@]3(c4nnc(C5(F)CCNC5)o4)C[C@]3(C(F)(F)F)C2)c2cccnc12` (stereo partly drawn) [Compound 46, 5-((1S,5R)-1-(5-(3-fluoropyrrolidin-3-yl)-1,3,4-oxadiazol-2-yl)-5-(trifluoromethyl)-3-azabicyclo[3.1.0]hexan-3-yl)quinoline-8-carbonitrile], for which the IC50 is less than 0.1 µM.
With `CN1CCC(F)(c2nnc([C@]34CN(c5ccc(C#N)c6ncccc56)C[C@@]3(C(F)(F)F)C4)o2)C1` (stereo partly drawn) [Compound 47, 5-((1S,5R)-1-(5-(3-fluoro-1-methylpyrrolidin-3-yl)-1,3,4-oxadiazol-2-yl)-5-(trifluoromethyl)-3-azabicyclo[3.1.0]hexan-3-yl)quinoline-8-carbonitrile] the figure was less than 0.1 µM; with `CN1CC(F)(c2nnc([C@]34CN(c5ccc(C#N)c6ncccc56)C[C@@]3(C(F)(F)F)C4)o2)C1` [Compound 49, 5-((1S,5R)-1-(5-(3-fluoro-1-methylazetidin-3-yl)-1,3,4-oxadiazol-2-yl)-5-(trifluoromethyl)-3-azabicyclo[3.1.0]hexan-3-yl)quinoline-8-carbonitrile], less than 0.1 µM; with `CN1CCC(c2nnc([C@]34CN(c5ccc(C#N)c6ncccc56)C[C@@]3(C(F)(F)F)C4)o2)C(F)C1` (stereo partly drawn) [Compound 50, 5-((1S,5R)-1-(5-(3-fluoro-1-methylpiperidin-4-yl)-1,3,4-oxadiazol-2-yl)-5-(trifluoromethyl)-3-azabicyclo[3.1.0]hexan-3-yl)quinoline-8-carbonitrile], less than 0.1 µM.
`CN(C)CCc1nnc([C@]23CN(c4ccc(C#N)c5ncccc45)C[C@@]2(C(F)(F)F)C3)o1` [Compound 51, 5-((1S,5R)-1-(5-(2-(dimethylamino)ethyl)-1,3,4-oxadiazol-2-yl)-5-(trifluoromethyl)-3-azabicyclo[3.1.0]hexan-3-yl)quinoline-8-carbonitrile]: the half-inhibitory concentration (IC50) was less than 0.1 µM.
With `N#Cc1ccc(N2C[C@]3(c4nnc(C56CCC(N)(CC5)CC6)o4)C[C@]3(C(F)(F)F)C2)c2cccnc12` [Compound 52, 5-((1S,5R)-1-(5-(4-aminobicyclo[2.2.2]octan-1-yl)-1,3,4-oxadiazol-2-yl)-5-(trifluoromethyl)-3-azabicyclo[3.1.0]hexan-3-yl)quinoline-8-carbonitrile] the figure was less than 0.1 µM; with `CN(C)C12CCC(c3nnc([C@]45CN(c6ccc(C#N)c7ncccc67)C[C@@]4(C(F)(F)F)C5)o3)(CC1)CC2` [Compound 53, 5-((1S,5R)-1-(5-(4-(dimethylamino)bicyclo[2.2.2]octan-1-yl)-1,3,4-oxadiazol-2-yl)-5-(trifluoromethyl)-3-azabicyclo[3.1.0]hexan-3-yl)quinoline-8-carbonitrile], less than 0.1 µM; with `N#Cc1ccc(N2C[C@]3(c4nnc(C56CCC(NC(=O)[C@@H]7COCCN7)(CC5)CC6)o4)C[C@]3(C(F)(F)F)C2)c2cccnc12` [Compound 54, (S)-N-(4-(5-((1S,5R)-3-(8-cyanoquinolin-5-yl)-5-(trifluoromethyl)-3-azabicyclo[3.1.0]hexan-1-yl)-1,3,4-oxadiazol-2-yl)bicyclo[2.2.2]octan-1-yl)morpholine-3-carboxamide], less than 0.1 µM.
Turning to `N#Cc1ccc(N2C[C@]3(c4nnc([C@H]5CN(CC(N)=O)CCO5)o4)C[C@]3(C(F)(F)F)C2)c2cccnc12` [Compound 56, 2-((R)-2-(5-((1S,5R)-3-(8-cyanoquinolin-5-yl)-5-(trifluoromethyl)-3-azabicyclo[3.1.0]hexan-1-yl)-1,3,4-oxadiazol-2-yl)morpholino)acetamide], the IC50 is less than 0.1 µM.
Take `CN1CCC(c2nnc([C@]34CN(c5ccc(C#N)n6ncc(F)c56)C[C@@]3(C(F)(F)F)C4)o2)CC1` [Compound 57, 3-fluoro-4-((1S,5R)-1-(5-(1-methylpiperidin-4-yl)-1,3,4-oxadiazol-2-yl)-5-(trifluoromethyl)-3-azabicyclo[3.1.0]hexan-3-yl)pyrazolo[1,5-a]pyridine-7-carbonitrile]: the IC50 is less than 0.1 µM.
In the case of `CN1CCC(c2nnc([C@]34CN(c5ccc(C#N)n6nccc56)C[C@@]3(C(F)(F)F)C4)o2)CC1` [Compound 59, 4-((1S,5R)-1-(5-(1-methylpiperidin-4-yl)-1,3,4-oxadiazol-2-yl)-5-(trifluoromethyl)-3-azabicyclo[3.1.0]hexan-3-yl)pyrazolo[1,5-a]pyridine-7-carbonitrile], the IC50 was less than 0.1 µM.
The figure for `N#Cc1ccc(N2C[C@]3(c4nnc(C5(F)CCNCC5)o4)C[C@]3(C(F)(F)F)C2)c2cccnc12` [Compound 60, 5-((1S,5R)-1-(5-(4-fluoropiperidin-4-yl)-1,3,4-oxadiazol-2-yl)-5-(trifluoromethyl)-3-azabicyclo[3.1.0]hexan-3-yl)quinoline-8-carbonitrile] is less than 0.1 µM; for `CN1CCC(c2nnc([C@]34CN(c5ccc(OC(F)(F)F)c6ncccc56)C[C@@]3(C(F)(F)F)C4)o2)CC1` [Compound 64, 2-(1-methylpiperidin-4-yl)-5-((1S,5R)-5-(trifluoromethyl)-3-(8-(trifluoromethoxy)quinolin-5-yl)-3-azabicyclo[3.1.0]hexan-1-yl)-1,3,4-oxadiazole] it is less than 0.1 µM; for `COc1ccc(N2C[C@]3(c4nnc(C5CCN(C)CC5)o4)C[C@]3(C(F)(F)F)C2)c2cccnc12` [Compound 66, 2-((1S,5R)-3-(8-methoxyquinolin-5-yl)-5-(trifluoromethyl)-3-azabicyclo[3.1.0]hexan-1-yl)-5-(1-methylpiperidin-4-yl)-1,3,4-oxadiazole] it is less than 0.1 µM.
The figure for `CN1CCC(n2cc([C@]34CN(c5ccc(C#N)c6ncccc56)C[C@@]3(C(F)(F)F)C4)nn2)CC1` [Compound 71, 5-((1S,5R)-1-(1-(1-methylpiperidin-4-yl)-1H-1,2,3-triazol-4-yl)-5-(trifluoromethyl)-3-azabicyclo[3.1.0]hexan-3-yl)quinoline-8-carbonitrile] is less than 0.1 µM; for `FC(F)(F)c1ccc(N2C[C@]3(c4nnc(C5CCNCC5)o4)C[C@]3(C(F)(F)F)C2)c2cccnc12` [Compound 75, 2-(piperidin-4-yl)-5-((1S,5R)-5-(trifluoromethyl)-3-(8-(trifluoromethyl)quinolin-5-yl)-3-azabicyclo[3.1.0]hexan-1-yl)-1,3,4-oxadiazole] it is less than 0.1 µM.
On to `FC(F)(F)c1ccc(N2C[C@]3(c4nnc(C5CCN(CC6CC6)CC5)o4)C[C@]3(C(F)(F)F)C2)c2cccnc12` [Compound 76, 2-(1-(cyclopropylmethyl)piperidin-4-yl)-5-((1S,5R)-5-(trifluoromethyl)-3-(8-(trifluoromethyl)quinolin-5-yl)-3-azabicyclo[3.1.0]hexan-1-yl)-1,3,4-oxadiazole], for which the IC50 is less than 0.1 µM.
On to `NC(=O)CN1CCC(c2nnc([C@]34CN(c5ccc(C(F)(F)F)c6ncccc56)C[C@@]3(C(F)(F)F)C4)o2)CC1` [Compound 77, 2-(4-(5-((1S,5R)-5-(trifluoromethyl)-3-(8-(trifluoromethyl)quinolin-5-yl)-3-azabicyclo[3.1.0]hexan-1-yl)-1,3,4-oxadiazol-2-yl)piperidin-1-yl)acetamide], for which the 50% inhibitory concentration (IC50) was less than 0.1 µM.
